{"source": "patent US20060233709A1", "about": "“Method for identifying novel treatments of inflammatory disease in the gut” (priority 2003, published 2006)", "key": {"[1]": {"system": "zebrafish larvae with PSA-induced IBD", "assay": "Histology (haematoxylin and eosin sections) of gut in PSA-induced IBD", "assay_type": "in vivo"}, "[2]": {"system": "zebrafish larvae with PSA-induced IBD", "assay": "In vivo examination of gut architecture and motility (quercetin labelling) in PSA-induced IBD", "details": "for Rescue of the IBD phenotype: IBD induced with PSA 3 to 5 d.p.f., drug added with PSA from 5 d.p.f."}, "zebrafish": {"system": "zebrafish", "assay": "DMSO tolerance of zebrafish", "details": "in vivo", "source_text": "Moreover, the inventors have discovered that zebrafish are also DMSO (dimethyl sulphoxide) tolerant. This is important as DMSO is used as a solvent to dissolve many drugs. The inventors have established that zebrafish can tolerate 1% DMSO. Thus, a candidate drug or other test substance may be dissolved in DMSO and administered to zebrafish by adding to the fish water to give a final concentration of DMSO of at least up to 1%. This is employed in various preferred aspects and embodiments of the present invention."}, "zebrafish larvae": {"system": "zebrafish larvae", "assay": "Suitability of fluorescent stains for in vivo gut visualisation", "protocol": "In vivo labelling was achieved by rearing fish in a suspension of 0.05% quercetin (Sigma) for a minimum of 2 hours. To observe gut architecture and motility, larvae were anaesthetised larvae by immersion in 0.2 mg/ml 3-amino benzoic acid ethylester (MS222) (Sigma). Gut architecture and motility can be observed using the FITC and GFP filter sets.\nVisualisation is achieved by the administration of a fluorescent dye to the embryo medium. The dye is swallowed by the fish but not readily absorbed and therefore fills the entire gut.\nWhen viewed under a fluorescent microscope, the crypts and villi of the gut were apparent as the unstained tissue of the gut wall was highlighted in contrast to the fluorescent medium that filled the gut lumen. In addition, as staining can be performed in vivo, waves of peristalsis were observed (as indicated in the different positions of the gut wall)."}, "TNFα": {"system": "TNFα", "details": "co-administration with PSA from 3 to 8 d.p.f."}}, "note": "“Also recorded” adds a separate entry of the source.", "data": [{"smiles": "Nc1ccc(O)c(C(=O)O)c1", "note": "[5-ASA, 5-amino salicylic acid]", "values": [{"measurement": "Effect when administered after the induction of disease changes", "setting": "[1]; drug given after PSA induction", "value": "effective when administered after the induction of disease changes"}, {"measurement": "Prevention/rescue of disease changes when co-administered with PSA", "setting": "[1]; effective dose co-administered with PSA, histological analysis", "value": "able to prevent/rescue disease changes"}, {"measurement": "Rescue of the IBD phenotype", "setting": "[2]", "value": "Rescue of the IBD phenotype was seen"}, {"measurement": "Rescue of the IBD phenotype", "setting": "[2]; listed as salicylic acid", "value": "rescue of the disease phenotype"}]}, {"smiles": "C[S+](C)[O-]", "note": "[DMSO, dimethyl sulphoxide]", "values": [{"measurement": "Tolerated DMSO concentration in fish water", "setting": "zebrafish", "value": 1, "unit": "%"}]}, {"smiles": "O=c1c(O)c(-c2ccc(O)c(O)c2)oc2cc(O)cc(O)c12", "note": "[quercetin]", "values": [{"measurement": "Toxicity as in vivo gut stain", "setting": "zebrafish larvae", "value": "low toxicity"}]}, {"smiles": "O=C1CCC(N2C(=O)c3ccccc3C2=O)C(=O)N1", "note": "(stereo not drawn) [thalidomide]", "values": [{"measurement": "Rescue / improvement in gut histology", "setting": "[1]; co-administration with PSA from 3 to 8 d.p.f.", "value": "failed to show improvement; also recorded: neither rescues the disease changes"}, {"measurement": "Rescue of the in vivo disease phenotype", "setting": "[2]; co-administration with PSA from 3 to 8 d.p.f., observed at 8 d.p.f.", "value": "failed to rescue the in vivo disease phenotype; also recorded: neither rescues the disease changes"}, {"measurement": "TNFα expression", "setting": "TNFα", "value": "down-regulation of TNFα expression"}]}]}
